From ChEMBL document CHEMBL1201862, “PubChem BioAssay data set” (2004)
Active and inactive are the calls of the source.

Assays:
[1] = target: T1, Heat shock factor protein 1 (Mus musculus, UniProt P38532); assay: HSF1 potentiators in luciferase reporter cells, confirmation, cell-based, NIH3T3, luminescence, dose retest (AID 435004); type: functional;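 also: stress induced by proteasome inhibitor MG132 added 30 min after compound; luciferase reporter driven by HSF1 response element in NIH3T3 cells; actives raise luminescence as potentiators of the MG132 stress response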
T1 sequence (P38532 whole entry): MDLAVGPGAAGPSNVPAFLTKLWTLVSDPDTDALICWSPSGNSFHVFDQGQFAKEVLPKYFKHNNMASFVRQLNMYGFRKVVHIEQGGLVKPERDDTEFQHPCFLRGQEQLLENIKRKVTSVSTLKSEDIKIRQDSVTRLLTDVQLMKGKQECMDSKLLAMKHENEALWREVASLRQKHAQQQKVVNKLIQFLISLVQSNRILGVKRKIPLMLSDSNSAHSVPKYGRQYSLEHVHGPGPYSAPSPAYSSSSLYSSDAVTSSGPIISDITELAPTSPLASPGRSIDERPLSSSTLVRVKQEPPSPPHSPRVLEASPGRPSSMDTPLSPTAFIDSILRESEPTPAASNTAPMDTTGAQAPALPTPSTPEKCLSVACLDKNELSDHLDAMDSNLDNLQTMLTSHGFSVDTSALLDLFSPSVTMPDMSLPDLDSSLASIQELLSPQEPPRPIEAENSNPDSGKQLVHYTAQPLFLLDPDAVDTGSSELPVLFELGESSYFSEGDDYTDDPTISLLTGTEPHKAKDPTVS

Cytochrome P450 2C19 = Cytochrome P450 2C19 (Homo sapiens, UniProt P33261); assay: Cytochrome panel assay with activity outcomes. Panel member name: p450-cyp2c19 Compounds with AC50 equal or less than 10 uM are considered active; type: functional
Cytochrome P450 1A2 = target: T2, Cytochrome P450 1A2 (Homo sapiens, UniProt P05177);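 also: PubChem cytochrome P450 panel assay, CYP1A2 panel member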
T2 sequence (P05177 whole entry): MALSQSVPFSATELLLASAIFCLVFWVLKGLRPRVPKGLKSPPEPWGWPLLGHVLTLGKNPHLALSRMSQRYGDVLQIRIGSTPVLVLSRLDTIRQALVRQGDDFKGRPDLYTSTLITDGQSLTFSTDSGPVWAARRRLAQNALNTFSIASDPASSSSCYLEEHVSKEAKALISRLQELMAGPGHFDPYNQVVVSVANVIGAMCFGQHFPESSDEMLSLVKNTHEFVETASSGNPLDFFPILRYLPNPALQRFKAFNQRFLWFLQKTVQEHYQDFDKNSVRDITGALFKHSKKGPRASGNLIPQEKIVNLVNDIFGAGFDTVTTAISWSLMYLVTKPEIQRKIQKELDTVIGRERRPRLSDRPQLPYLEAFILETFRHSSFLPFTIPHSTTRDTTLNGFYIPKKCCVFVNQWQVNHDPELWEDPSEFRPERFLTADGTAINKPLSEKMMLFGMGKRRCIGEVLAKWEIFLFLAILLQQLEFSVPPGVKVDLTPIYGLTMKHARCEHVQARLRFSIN

INS1 = assay: beta cell apoptosis inhibitors, cytokine rescue, dose response, luminescence, retest (AID 449756); type: functional, cell-based; conditions: Rattus norvegicus;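 also: cell death triggered by IL-1 beta plus TNF-alpha plus IFN-gamma mixture; protective hits raise ATP signal compared with cytokine alone wells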
[2] = target: T3, Rac GTPase-activating protein 1 (Homo sapiens, UniProt Q9H0H5); assay: MgcRacGAP GTPase-activating activity inhibitors, confirmation, biochemical, ADP Hunter fluorescence, primary and confirmatory (AID 624330); type: functional
T3 sequence (Q9H0H5 whole entry): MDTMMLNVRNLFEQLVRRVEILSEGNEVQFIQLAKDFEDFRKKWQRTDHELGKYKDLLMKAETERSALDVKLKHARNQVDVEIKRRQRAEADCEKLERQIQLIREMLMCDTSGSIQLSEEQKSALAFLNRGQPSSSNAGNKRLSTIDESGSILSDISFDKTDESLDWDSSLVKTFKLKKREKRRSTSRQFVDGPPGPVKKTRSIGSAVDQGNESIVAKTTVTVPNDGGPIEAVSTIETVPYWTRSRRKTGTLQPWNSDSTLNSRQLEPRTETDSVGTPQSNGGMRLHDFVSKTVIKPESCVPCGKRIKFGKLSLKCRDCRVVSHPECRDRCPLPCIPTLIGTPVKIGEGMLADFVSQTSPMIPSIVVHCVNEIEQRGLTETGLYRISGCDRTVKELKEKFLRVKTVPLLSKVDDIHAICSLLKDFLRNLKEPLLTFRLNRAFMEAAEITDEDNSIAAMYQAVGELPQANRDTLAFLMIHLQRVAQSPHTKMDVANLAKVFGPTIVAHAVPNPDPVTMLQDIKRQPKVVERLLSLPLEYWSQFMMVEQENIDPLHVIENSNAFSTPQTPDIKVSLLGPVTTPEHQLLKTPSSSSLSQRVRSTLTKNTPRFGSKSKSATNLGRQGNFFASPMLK

Cytochrome P450 2C9 = Cytochrome P450 2C9 (Homo sapiens, UniProt P11712)
[3] = inhibitors of firefly luciferase expression or activity, dose response, H4 neuroglioma cells, luminescence (AID 1990); type: functional, cell-based
[4] = Luminescence Cell-Based Dose Response HTS to Identify Inhibitors of 5'UTR Stem-Loop Driven Prion Protein mRNA Translation in H4 Neuroglioblastoma Cells. [Related pubchem assays: 1827 (Project Summary), 1813 (Primary HTS)]; type: functional
[5] = inhibitors of SNCA 5'UTR-driven reporter translation, confirmation, H4 neuroglioma cells, luminescence (AID 1988); type: functional, cell-based
[6] = HEp-2 cell cytotoxicity, dose response, cytotoxicity control for RSV inhibitor project, HTS (AID 2410); type: functional; conditions: human respiratory syncytial virus
Cytochrome P450 3A4 = Cytochrome P450 3A4 (Homo sapiens, UniProt P08684);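 also: CYP3A4 tested as one member of a cytochrome P450 panel screen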
H4 = assay: Luminescence Cell-Based Dose Response HTS to Identify Activators of 5'UTR Stem-Loop Driven Prion Protein mRNA Translation in H4 Neuroglioblastoma Cells. [Related pubchem assays: 1829 (Project Summary), 1814 (Primary HTS)]; type: functional; conditions: Homo sapiens
[7] = target: T4, Corticotropin-releasing factor receptor 2/Corticotropin-releasing factor-binding protein (Homo sapiens, UniProt P24387+Q13324); assay: activators of CRF receptor 2 with binding protein – uHTS hits, confirmation (AID 602473); type: functional; conditions: read-out: EC50_Mean
T4 sequence (Q13324 whole entry): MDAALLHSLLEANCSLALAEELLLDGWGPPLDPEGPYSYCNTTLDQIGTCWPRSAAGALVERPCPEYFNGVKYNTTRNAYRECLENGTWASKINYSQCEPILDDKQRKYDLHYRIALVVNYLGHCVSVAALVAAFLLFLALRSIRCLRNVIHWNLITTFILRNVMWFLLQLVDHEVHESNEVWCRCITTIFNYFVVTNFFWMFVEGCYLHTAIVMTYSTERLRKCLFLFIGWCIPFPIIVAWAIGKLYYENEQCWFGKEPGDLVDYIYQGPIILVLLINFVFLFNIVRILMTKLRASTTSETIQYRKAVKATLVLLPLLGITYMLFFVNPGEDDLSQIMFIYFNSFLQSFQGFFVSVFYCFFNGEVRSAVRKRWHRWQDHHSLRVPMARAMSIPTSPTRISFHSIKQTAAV
T4 sequence (P24387 whole entry): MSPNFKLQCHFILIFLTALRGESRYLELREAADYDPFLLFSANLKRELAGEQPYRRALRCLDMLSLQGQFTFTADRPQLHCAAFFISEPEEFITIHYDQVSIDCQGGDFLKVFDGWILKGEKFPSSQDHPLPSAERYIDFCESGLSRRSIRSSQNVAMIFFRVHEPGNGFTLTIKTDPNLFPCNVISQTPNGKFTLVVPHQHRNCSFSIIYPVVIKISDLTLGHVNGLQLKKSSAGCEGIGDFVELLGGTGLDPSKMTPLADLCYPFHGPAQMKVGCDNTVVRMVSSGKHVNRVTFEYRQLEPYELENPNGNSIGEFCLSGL

Cytochrome P450 2C19, sequence (P33261 whole entry): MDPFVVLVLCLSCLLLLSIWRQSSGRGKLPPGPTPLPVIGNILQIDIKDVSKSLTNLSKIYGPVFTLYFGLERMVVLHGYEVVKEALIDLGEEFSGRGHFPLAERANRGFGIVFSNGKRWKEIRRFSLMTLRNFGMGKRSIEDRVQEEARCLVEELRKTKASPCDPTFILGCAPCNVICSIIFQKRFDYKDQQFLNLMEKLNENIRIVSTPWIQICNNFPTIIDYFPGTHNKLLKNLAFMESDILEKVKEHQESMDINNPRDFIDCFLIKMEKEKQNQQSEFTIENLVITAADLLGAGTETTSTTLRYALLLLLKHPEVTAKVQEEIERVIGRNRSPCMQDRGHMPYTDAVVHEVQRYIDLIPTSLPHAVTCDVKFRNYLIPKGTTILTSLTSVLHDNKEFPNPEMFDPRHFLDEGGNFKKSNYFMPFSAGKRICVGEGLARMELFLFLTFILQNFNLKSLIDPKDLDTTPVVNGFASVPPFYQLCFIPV
Cytochrome P450 2C9, sequence (P11712 whole entry): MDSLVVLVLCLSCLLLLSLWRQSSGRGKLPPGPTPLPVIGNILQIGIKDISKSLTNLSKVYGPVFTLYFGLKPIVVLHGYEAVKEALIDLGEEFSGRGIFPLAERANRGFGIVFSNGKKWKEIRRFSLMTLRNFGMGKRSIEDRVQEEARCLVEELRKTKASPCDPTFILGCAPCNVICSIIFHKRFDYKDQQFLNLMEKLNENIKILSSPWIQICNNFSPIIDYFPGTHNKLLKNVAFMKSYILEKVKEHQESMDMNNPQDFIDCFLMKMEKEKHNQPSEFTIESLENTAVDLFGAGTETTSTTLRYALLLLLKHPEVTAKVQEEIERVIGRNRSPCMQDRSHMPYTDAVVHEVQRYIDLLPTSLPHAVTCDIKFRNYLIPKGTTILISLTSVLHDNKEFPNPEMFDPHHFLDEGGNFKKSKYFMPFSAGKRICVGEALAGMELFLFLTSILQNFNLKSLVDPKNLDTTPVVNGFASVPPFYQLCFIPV
Cytochrome P450 3A4, sequence (P08684 whole entry): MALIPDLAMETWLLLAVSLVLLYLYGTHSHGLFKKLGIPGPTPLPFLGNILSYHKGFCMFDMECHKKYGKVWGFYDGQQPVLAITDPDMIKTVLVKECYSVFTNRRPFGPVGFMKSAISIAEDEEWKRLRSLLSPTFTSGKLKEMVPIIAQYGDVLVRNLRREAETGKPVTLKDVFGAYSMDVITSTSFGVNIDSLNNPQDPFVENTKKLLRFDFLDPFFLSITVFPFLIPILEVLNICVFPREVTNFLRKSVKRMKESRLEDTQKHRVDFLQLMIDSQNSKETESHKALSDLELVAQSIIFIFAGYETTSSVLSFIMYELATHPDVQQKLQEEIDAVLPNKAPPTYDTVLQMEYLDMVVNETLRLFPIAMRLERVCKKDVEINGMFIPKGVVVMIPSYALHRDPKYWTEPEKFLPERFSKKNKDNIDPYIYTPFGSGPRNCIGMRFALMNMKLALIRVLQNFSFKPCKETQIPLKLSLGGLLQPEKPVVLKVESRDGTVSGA

## CCn1c(SCC(=O)c2ccc(Cl)cc2)nnc1-c1ccoc1C
[1]
  EC50: > 260 µM (inactive)

## NCCSc1nc(-c2ccccc2)c(-c2ccccc2)o1
Cytochrome P450 2C19; read-out: AC50
  AC50: 0.00794 µM (inconclusive)
Cytochrome P450 1A2
  AC50: 3.16 µM (inconclusive)

## Cc1ccc([N+](=O)[O-])c(OCCN2CCCCCC2)c1
INS1
  AC50: 4.9 µM (active)

## Nc1ccc2c(c1)Nc1ccccc1CC2
[2]
  IC50: 27.2 µM (active)

## Nc1nc(N)c(/N=N\c2ccc(C(=O)O)c(O)c2)c(N)n1
Cytochrome P450 2C19; read-out: AC50
  AC50: 0.631 µM (inconclusive)

## O=C(c1cccs1)N1CCN(C(=O)C(c2ccccc2)c2ccccc2)CC1
Cytochrome P450 2C19; read-out: AC50
  AC50: 25.1 µM (inconclusive)

## Cc1cc2nnc(SCC(=O)N3CCN(c4ccccc4)CC3)n2c(N)n1
Cytochrome P450 2C19
  AC50: inconclusive
Cytochrome P450 2C9
  AC50: 25.1 µM (inconclusive)

## O=C(NCCn1cccn1)C1CCC(=O)N(CCc2cccc(F)c2)C1 (configuration not stated)
[1]
  EC50: > 260 µM (inactive)

## O=C(CSc1ccc(Cl)cc1)Nc1ccc(N2CCN(C(=O)c3ccc(Cl)cc3)CC2)cc1
Cytochrome P450 2C19; read-out: AC50
  AC50: 14.1 µM (inconclusive)

## Cc1ccc(S(=O)(=O)n2c(=O)oc3ccccc32)cc1
[1]
  EC50: > 260 µM (inactive)

## COc1ccc(CNC(=O)C(c2ccc(C)o2)N(C(=O)c2csnn2)c2ccc(C(C)C)cc2)cc1 (configuration not stated)
[1]
  EC50: 73.7 µM (active)

## CCCCn1cnc2c(oc3nc4c(cc32)CCCC4)c1=O
[1]
  EC50: > 260 µM (inactive)

## Cc1c(Cl)cccc1NC(=O)CCC(=O)NNC(=O)c1ccco1
Cytochrome P450 2C19
  AC50: inconclusive

## COc1ccc(CN(C)CCc2ccccn2)c(OC)c1OC
[2]
  IC50: 134 µM (active)

## O=C1N=C(N2CCOCC2)S/C1=C\c1ccccc1OS(=O)(=O)c1ccccc1
[3]
  EC50: 14.8 µM (active)
[4]
  EC50: > 120 µM (not active)
[5]
  EC50: > 120 µM (not active)

## COc1cc(CNc2ccc3[nH]c(O)nc3c2)ccc1OCc1cccc(C)c1
[2]
  IC50: 236 µM (active)

## COc1ccc(CC(=O)Nc2cc3oc4ccccc4c3cc2OC)cc1
[6]
  CC50: > 50 µM (active)

## O=C(NCc1nnc(S)n1-c1ccccc1)c1ccc(S(=O)(=O)N2CCOCC2)cc1
Cytochrome P450 2C19; read-out: AC50
  AC50: 25.1 µM (inconclusive)
Cytochrome P450 3A4
  AC50: 31.6 µM (inconclusive)
Cytochrome P450 2C9
  AC50: 14.1 µM (inconclusive)

## Cc1nc(N2CCN(S(=O)(=O)c3ccc(F)cc3)CC2)c2c(-c3cccs3)csc2n1
[6]
  CC50: 16.8 µM (active)

## COCC(C)NCc1ccc(OC)c(Br)c1 (configuration not stated)
[2]
  IC50: 167 µM (active)

## Cc1cccn2c(=O)c3c(nc12)N1CCC(Cc2ccccc2)CC1C1(C3)C(=O)N(C)C(=O)N(C)C1=O (configuration not stated)
[1]
  EC50: > 260 µM (inactive)

## COc1ncc2nc(-c3cn(C)c4ccccc34)c(=O)n(C)c2n1
Cytochrome P450 2C19
  AC50: inconclusive

## CNc1nc(Nc2ccc(C)c(Cl)c2)nc(N)c1[N+](=O)[O-]
[1]
  EC50: 82.2 µM (active)

## O=C(O)CSc1nnnn1-c1ccc2c(c1)OCCO2
[1]
  EC50: > 260 µM (inactive)

## COc1ccc(F)cc1C(=O)C1CCCN(C(=O)c2ccccc2N(C)C)C1 (configuration not stated)
[6]
  CC50: 28.1 µM (active)

## O=C(c1cc(C(F)(F)F)cc(C(F)(F)F)c1)N1CCC2(CCCN(Cc3nccs3)C2)CC1
Cytochrome P450 2C19
  AC50: inconclusive

## COC(=O)[C@H]1C[C@@H]1[C@H](NC(=O)c1cc(C)nn1C)c1ccccc1
Cytochrome P450 2C19; read-out: AC50
  AC50: 15.8 µM (inconclusive)

## Nc1c(C(=O)Nc2ccccc2Cl)nnn1-c1ccc2c(c1)OCCO2
H4
  EC50: > 120 µM (not active)

## CCOC(=O)c1ccc(NC(=S)N2CCSC2c2ccc(Cl)cc2)cc1 (configuration not stated)
[6]
  CC50: 16.9 µM (active)
[7]
  EC50: 4.71 µM (active)

## CCOc1ccc(S(=O)(=O)N2CCCCC2)cc1NC(=O)CN1CCCC1c1cccs1 (configuration not stated)
INS1
  AC50: 4.23 µM (active)

## Cc1cc(C)c(OCCCCN(C)Cc2ccccc2)c(C)c1
[2]
  IC50: 120 µM (active)

## CCOC(=O)C(NC(=O)CC)(Nc1sc2c(c1C(=O)OC)CCN(C)C2)C(F)(F)F (configuration not stated)
Cytochrome P450 2C19; read-out: AC50
  AC50: 2.51 µM (inconclusive)
Cytochrome P450 1A2
  AC50: 10 µM (inconclusive)
Cytochrome P450 2C9
  AC50: 15.8 µM (inconclusive)

## Cc1occc1C(=O)NNS(=O)(=O)c1ccc([N+](=O)[O-])cc1
[1]
  EC50: > 260 µM (inactive)

## O=C(NCc1cccc(F)c1)c1cccc2c1C(=O)c1ccc(N3CCCC3)cc1S2(=O)=O
[7]
  EC50: 6.84 µM (active)

## COc1ccccc1N1CCN(C2CCCCC2NS(=O)(=O)c2ccc(Cl)cc2)CC1 (configuration not stated)
[7]
  EC50: 4.3 µM (active)

## CCOC(=O)Cn1nnc(-c2cccc(OC)c2)n1
[1]
  EC50: > 260 µM (inactive)

## CC/C(=N\CCc1c(C)[nH]c2ccccc12)C1=C(O)CC(c2ccccc2)CC1=O (configuration not stated)
[3]
  EC50: > 30 µM (not active)
[4]
  EC50: 11.7 µM (active)
[5]
  EC50: > 120 µM (not active)

## C[C@H]1[C@@H](OC(=O)CCC(=O)O)O[C@@H]2OC3(C)CC[C@H]4[C@H](C)CC[C@@H]1[C@@]24OO3
[3]
  EC50: > 120 µM (not active)
[4]
  EC50: > 120 µM (not active)
[5]
  EC50: > 120 µM (not active)

## O=c1c(-c2cccc(Cl)c2)c[nH]n1-c1ccccc1
[2]
  IC50: 59.6 µM (active)

## COc1ccc(/C=N/n2cncn2)cc1COc1ccc(NC(C)=O)cc1
[1]
  EC50: > 260 µM (inactive)

## CCCCOc1ccc(CNC(=S)N/N=C/c2ccc(OC)c(OC)c2)cc1
[6]
  CC50: 41.2 µM (active)

## COc1cc(/C=N/n2c(S)nnc2-c2cc(C)[nH]n2)cc(OC)c1O
[2]
  IC50: 69.3 µM (active)

## COc1ccc(/C=N/N2CCN(C)CC2)cc1O
[2]
  IC50: 39.2 µM (active)

## CCN(CC)c1ccc(/C=N/N(c2ccccc2)c2ccccc2)c(O)c1
INS1
  AC50: 5.2 µM (active)
